Tests used:
persian speedwell [1] = experiment: Test Example 5: herbicidal effect by foliage application, plastic box (Table 20, symbol R); format: in vivo, Persian speedwell (Veronica persica); conditions: 320 g/ha, evaluated three weeks after application
Outline: (§1)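 Plants sown in sterilized diluvial soil and grown 14 days in a greenhouse at 25° C to 30° C, then sprayed on the foliage with the compound's emulsion diluted in water to a predetermined herbicide amount. Injury to weeds and crops scored three weeks after application on a visual rating scale.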

Japanese bulrush = experiment: Test Example 1: herbicidal activity, application before weed generation under submerged conditions (Table 16, symbol B); format: in vivo, Japanese bulrush (Schoenoplectus juncoides)
Outline: (§2)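 Emulsion formulation, water-diluted to set dose, was put onto the flooded surface (4 cm depth, alluvial soil) the same day weeds were sown and 2.5-leaf rice transplanted. After 3 weeks at 25-30 °C under glass, each species was rated 0 (≤5% kill) to 5 (≥90% kill).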

blackgrass [2] = experiment: Test Example 5: herbicidal effect by foliage application, plastic box (Table 20, symbol J); format: in vivo, blackgrass (Alopecurus myosuroides); conditions: 320 g/ha, evaluated three weeks after application
Outline: as §1

chickweed [3] = experiment: Test Example 4: herbicidal effect by soil treatment (Table 19, symbol P); format: in vivo, common chickweed (Stellaria media); conditions: amount of applied herbicide 320 g/ha
Outline: (§3)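 Seeds were sown in sterilized diluvial soil and covered with about 1.5 cm of soil. An emulsion formulation diluted with water to a predetermined herbicide amount was sprayed evenly onto the soil surface. Plants grew in a greenhouse at 25° C. to 30° C., and the effect was scored three weeks after application using criteria from an earlier test.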

Italian ryegrass [4] = experiment: Test Example 5: herbicidal effect by foliage application, plastic box (Table 20, symbol K); format: in vivo, Italian ryegrass (Lolium multiflorum); conditions: 320 g/ha, evaluated three weeks after application
Outline: as §1

southern crabgrass [5] = experiment: Test Example 4: herbicidal effect by soil treatment (Table 19, symbol F); format: in vivo, southern crabgrass (Digitaria ciliaris); conditions: amount of applied herbicide 320 g/ha
Outline: as §3

false cleavers = experiment: Test Example 4: herbicidal effect by soil treatment (Table 19, symbol Q); format: in vivo, false cleavers (Galium spurium); conditions: amount of applied herbicide 320 g/ha
Outline: as §3

lambsquarters [6] = experiment: Test Example 4: herbicidal effect by soil treatment (Table 19, symbol O); format: in vivo, lambsquarters (Chenopodium album); conditions: amount of applied herbicide 320 g/ha
Outline: as §3

windgrass [7] = experiment: Test Example 5: herbicidal effect by foliage application, plastic box (Table 20, symbol L); format: in vivo, windgrass (Apera spica-venti); conditions: 320 g/ha, evaluated three weeks after application
Outline: as §1

barnyard grass [8] = experiment: Test Example 4: herbicidal effect by soil treatment (Table 19, symbol H); format: in vivo, barnyard grass (Echinochloa crus-galli); conditions: amount of applied herbicide 320 g/ha
Outline: as §3

lambsquarters [9] = experiment: Test Example 5: herbicidal effect by foliage application, plastic box (Table 20, symbol O); format: in vivo, lambsquarters (Chenopodium album); conditions: 320 g/ha, evaluated three weeks after application
Outline: as §1

green foxtail [10] = experiment: Test Example 4: herbicidal effect by soil treatment (Table 19, symbol G); format: in vivo, green foxtail (Setaria viridis); conditions: amount of applied herbicide 320 g/ha
Outline: as §3

persian speedwell [11] = experiment: Test Example 4: herbicidal effect by soil treatment (Table 19, symbol R); format: in vivo, Persian speedwell (Veronica persica); conditions: amount of applied herbicide 320 g/ha
Outline: as §3

Italian ryegrass [12] = experiment: Test Example 4: herbicidal effect by soil treatment (Table 19, symbol K); format: in vivo, Italian ryegrass (Lolium multiflorum); conditions: amount of applied herbicide 320 g/ha
Outline: as §3

southern crabgrass [13] = experiment: Test Example 5: herbicidal effect by foliage application, plastic box (Table 20, symbol F); format: in vivo, southern crabgrass (Digitaria ciliaris); conditions: 320 g/ha, evaluated three weeks after application
Outline: as §1

redroot pigweed [14] = experiment: Test Example 5: herbicidal effect by foliage application, plastic box (Table 20, symbol N); format: in vivo, redroot pigweed (Amaranthus retroflexus); conditions: 320 g/ha, evaluated three weeks after application
Outline: as §1

wild oat [15] = experiment: Test Example 5: herbicidal effect by foliage application, plastic box (Table 20, symbol I); format: in vivo, wild oat (Avena fatua); conditions: 320 g/ha, evaluated three weeks after application
Outline: as §1

green foxtail [16] = experiment: Test Example 5: herbicidal effect by foliage application, plastic box (Table 20, symbol G); format: in vivo, green foxtail (Setaria viridis); conditions: 320 g/ha, evaluated three weeks after application
Outline: as §1

barnyard grass [17] = experiment: Test Example 5: herbicidal effect by foliage application, plastic box (Table 20, symbol H); format: in vivo, barnyard grass (Echinochloa crus-galli); conditions: 320 g/ha, evaluated three weeks after application
Outline: as §1

blackgrass [18] = experiment: Test Example 4: herbicidal effect by soil treatment (Table 19, symbol J); format: in vivo, blackgrass (Alopecurus myosuroides); conditions: amount of applied herbicide 320 g/ha
Outline: as §3

velvetleaf [19] = experiment: Test Example 4: herbicidal effect by soil treatment (Table 19, symbol M); format: in vivo, velvetleaf (Abutilon theophrasti); conditions: amount of applied herbicide 320 g/ha
Outline: as §3

velvetleaf [20] = experiment: Test Example 5: herbicidal effect by foliage application, plastic box (Table 20, symbol M); format: in vivo, velvetleaf (Abutilon theophrasti); conditions: 320 g/ha, evaluated three weeks after application
Outline: as §1

redroot pigweed [21] = experiment: Test Example 4: herbicidal effect by soil treatment (Table 19, symbol N); format: in vivo, redroot pigweed (Amaranthus retroflexus); conditions: amount of applied herbicide 320 g/ha
Outline: as §3

late watergrass = experiment: Test Example 1: herbicidal activity, application before weed generation under submerged conditions (Table 16, symbol A); format: in vivo, late watergrass (Echinochloa oryzicola)
Outline: as §2

wild oat [22] = experiment: Test Example 4: herbicidal effect by soil treatment (Table 19, symbol I); format: in vivo, wild oat (Avena fatua); conditions: amount of applied herbicide 320 g/ha
Outline: as §3

oval-leafed pondweed = experiment: Test Example 1: herbicidal activity, application before weed generation under submerged conditions (Table 16, symbol C); format: in vivo, oval-leafed pondweed (Monochoria vaginalis)
Outline: as §2

windgrass [23] = experiment: Test Example 4: herbicidal effect by soil treatment (Table 19, symbol L); format: in vivo, windgrass (Apera spica-venti); conditions: amount of applied herbicide 320 g/ha
Outline: as §3

chickweed [24] = experiment: Test Example 5: herbicidal effect by foliage application, plastic box (Table 20, symbol P); format: in vivo, common chickweed (Stellaria media); conditions: 320 g/ha, evaluated three weeks after application
Outline: as §1

barnyard grass [25] = experiment: Test Example 3: herbicidal effect by foliage application, Wagner pot (Table 18, symbol H); format: in vivo, barnyard grass (Echinochloa crus-galli); conditions: amount of applied herbicide 320 g/ha
Outline: (§4)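 Plants were sown in alluvial soil held under 0.1–0.5 cm standing water and grown 14 days in a greenhouse at 25–30 °C. An emulsifiable formulation, water-diluted to the set dose, was then sprayed onto the foliage, and effects were scored three weeks later using previously defined criteria.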

Chinese sprangletop = experiment: Test Example 3: herbicidal effect by foliage application, Wagner pot (Table 18, symbol D); format: in vivo, chinese sprangletop (Leptochloa chinensis); conditions: amount of applied herbicide 320 g/ha
Outline: as §4

[26] = foliage application after 14-day growth
[27] = amount of applied herbicide 320 g/ha

Compound: Cc1nn(C)c(=O)c(-c2c(-c3ccc(C(C)C)cc3)sc3c(F)cccc23)c1O [4-042]
- herbicidal effect on R: persian speedwell (evaluation grade 0-5) (persian speedwell [1]; [26]): 5 (Herbicidal rate of 90% or more (almost completely withered))
- Herbicidal effect, B: Japanese bulrush (Japanese bulrush; [27]): 3 (Herbicidal rate of 40% or more and less than 70%)
- herbicidal effect on J: blackgrass (evaluation grade 0-5) (blackgrass [2]; [26]): 0 (Herbicidal rate of 5% or less (almost no effect))
- Herbicidal effect by soil treatment, P: chickweed (chickweed [3]): 5 (Herbicidal rate of 90% or more (almost completely withered))
- herbicidal effect on K: Italian ryegrass (evaluation grade 0-5) (Italian ryegrass [4]; [26]): 3 (Herbicidal rate of 40% or more and less than 70%)
- Herbicidal effect by soil treatment, F: southern crabgrass (southern crabgrass [5]): 0 (Herbicidal rate of 5% or less (almost no effect))
- Herbicidal effect by soil treatment, Q: false cleavers (false cleavers): 0 (Herbicidal rate of 5% or less (almost no effect))
- Herbicidal effect by soil treatment, O: lambsquarters (lambsquarters [6]): 3 (Herbicidal rate of 40% or more and less than 70%)
- herbicidal effect on L: windgrass (evaluation grade 0-5) (windgrass [7]; [26]): 0 (Herbicidal rate of 5% or less (almost no effect))
- Herbicidal effect by soil treatment, H: barnyard grass (barnyard grass [8]): 1 (Herbicidal rate of 5% or more and less than 20%)
- herbicidal effect on O: lambsquarters (evaluation grade 0-5) (lambsquarters [9]; [26]): 4 (Herbicidal rate of 70% or more and less than 90%)
- Herbicidal effect by soil treatment, G: green foxtail (green foxtail [10]): 0 (Herbicidal rate of 5% or less (almost no effect))
- Herbicidal effect by soil treatment, R: persian speedwell (persian speedwell [11]): 3 (Herbicidal rate of 40% or more and less than 70%)
- Herbicidal effect by soil treatment, K: Italian ryegrass (Italian ryegrass [12]): 0 (Herbicidal rate of 5% or less (almost no effect))
- herbicidal effect on F: southern crabgrass (evaluation grade 0-5) (southern crabgrass [13]; [26]): 1 (Herbicidal rate of 5% or more and less than 20%)
- herbicidal effect on N: redroot pigweed (evaluation grade 0-5) (redroot pigweed [14]; [26]): 5 (Herbicidal rate of 90% or more (almost completely withered))
- herbicidal effect on I: wild oat (evaluation grade 0-5) (wild oat [15]; [26]): 0 (Herbicidal rate of 5% or less (almost no effect))
- herbicidal effect on G: green foxtail (evaluation grade 0-5) (green foxtail [16]; [26]): 4 (Herbicidal rate of 70% or more and less than 90%)
- herbicidal effect on H: barnyard grass (evaluation grade 0-5) (barnyard grass [17]; [26]): 5 (Herbicidal rate of 90% or more (almost completely withered))
- Herbicidal effect by soil treatment, J: blackgrass (blackgrass [18]): 0 (Herbicidal rate of 5% or less (almost no effect))
- Herbicidal effect by soil treatment, M: velvetleaf (velvetleaf [19]): 1 (Herbicidal rate of 5% or more and less than 20%)
- herbicidal effect on M: velvetleaf (evaluation grade 0-5) (velvetleaf [20]; [26]): 5 (Herbicidal rate of 90% or more (almost completely withered))
- Herbicidal effect by soil treatment, N: redroot pigweed (redroot pigweed [21]): 4 (Herbicidal rate of 70% or more and less than 90%)
- Herbicidal effect, A: late watergrass (late watergrass; [27]): 3 (Herbicidal rate of 40% or more and less than 70%)
- Herbicidal effect by soil treatment, I: wild oat (wild oat [22]): 0 (Herbicidal rate of 5% or less (almost no effect))
- Herbicidal effect, C: oval-leafed pondweed (oval-leafed pondweed; [27]): 0 (Herbicidal rate of 5% or less (almost no effect))
- Herbicidal effect by soil treatment, L: windgrass (windgrass [23]): 0 (Herbicidal rate of 5% or less (almost no effect))
- herbicidal effect on P: chickweed (evaluation grade 0-5) (chickweed [24]; [26]): 5 (Herbicidal rate of 90% or more (almost completely withered))

Compound: COc1cc(F)ccc1-c1sc2ccc(NC(C)=O)cc2c1-c1c(O)c(C)nn(C)c1=O [2-175]
- herbicidal effect on R: persian speedwell (criteria 0-5) (persian speedwell [1]; foliage application): 1 (Herbicidal rate of 5% or more and less than 20%)
- Herbicidal effect on B: Japanese bulrush (grade 0-5) (Japanese bulrush; 320 g/ha applied herbicide): 0 (Herbicidal rate of 5% or less (almost no effect))
- herbicidal effect on J: blackgrass (criteria 0-5) (blackgrass [2]; foliage application): 5 (Herbicidal rate of 90% or more (almost completely withered))
- P: chickweed, herbicidal effect rating (chickweed [3]): 0 (Herbicidal rate of 5% or less (almost no effect))
- herbicidal effect on K: Italian ryegrass (criteria 0-5) (Italian ryegrass [4]; foliage application): 0 (Herbicidal rate of 5% or less (almost no effect))
- F: southern crabgrass, herbicidal effect rating (southern crabgrass [5]): 0 (Herbicidal rate of 5% or less (almost no effect))
- Q: false cleavers, herbicidal effect rating (false cleavers): 0 (Herbicidal rate of 5% or less (almost no effect))
- O: lambsquarters, herbicidal effect rating (lambsquarters [6]): 4 (Herbicidal rate of 70% or more and less than 90%)
- herbicidal effect on H: barnyard grass (barnyard grass [25]): 4 (Herbicidal rate of 70% or more and less than 90%)
- herbicidal effect on L: windgrass (criteria 0-5) (windgrass [7]; foliage application): 5 (Herbicidal rate of 90% or more (almost completely withered))
- H: barnyard grass, herbicidal effect rating (barnyard grass [8]): 0 (Herbicidal rate of 5% or less (almost no effect))
- herbicidal effect on O: lambsquarters (criteria 0-5) (lambsquarters [9]; foliage application): 5 (Herbicidal rate of 90% or more (almost completely withered))
- G: green foxtail, herbicidal effect rating (green foxtail [10]): 0 (Herbicidal rate of 5% or less (almost no effect))
- R: persian speedwell, herbicidal effect rating (persian speedwell [11]): 0 (Herbicidal rate of 5% or less (almost no effect))
- K: Italian ryegrass, herbicidal effect rating (Italian ryegrass [12]): 0 (Herbicidal rate of 5% or less (almost no effect))
- herbicidal effect on F: southern crabgrass (criteria 0-5) (southern crabgrass [13]; foliage application): 3 (Herbicidal rate of 40% or more and less than 70%)
- herbicidal effect on N: redroot pigweed (criteria 0-5) (redroot pigweed [14]; foliage application): 5 (Herbicidal rate of 90% or more (almost completely withered))
- herbicidal effect on I: wild oat (criteria 0-5) (wild oat [15]; foliage application): 3 (Herbicidal rate of 40% or more and less than 70%)
- herbicidal effect on G: green foxtail (criteria 0-5) (green foxtail [16]; foliage application): 4 (Herbicidal rate of 70% or more and less than 90%)
- herbicidal effect on H: barnyard grass (criteria 0-5) (barnyard grass [17]; foliage application): 1 (Herbicidal rate of 5% or more and less than 20%)
- J: blackgrass, herbicidal effect rating (blackgrass [18]): 0 (Herbicidal rate of 5% or less (almost no effect))
- M: velvetleaf, herbicidal effect rating (velvetleaf [19]): 0 (Herbicidal rate of 5% or less (almost no effect))
- herbicidal effect on M: velvetleaf (criteria 0-5) (velvetleaf [20]; foliage application): 3 (Herbicidal rate of 40% or more and less than 70%)
- N: redroot pigweed, herbicidal effect rating (redroot pigweed [21]): 4 (Herbicidal rate of 70% or more and less than 90%)
- Herbicidal effect on A: late watergrass (grade 0-5) (late watergrass; 320 g/ha applied herbicide): 3 (Herbicidal rate of 40% or more and less than 70%)
- I: wild oat, herbicidal effect rating (wild oat [22]): 0 (Herbicidal rate of 5% or less (almost no effect))
- Herbicidal effect on C: oval-leafed pondweed (grade 0-5) (oval-leafed pondweed; 320 g/ha applied herbicide): 0 (Herbicidal rate of 5% or less (almost no effect))
- L: windgrass, herbicidal effect rating (windgrass [23]): 0 (Herbicidal rate of 5% or less (almost no effect))
- herbicidal effect on D: Chinese sprangletop (Chinese sprangletop): 3 (Herbicidal rate of 40% or more and less than 70%)
- herbicidal effect on P: chickweed (criteria 0-5) (chickweed [24]; foliage application): 5 (Herbicidal rate of 90% or more (almost completely withered))

From US20230085307A1, “PYRIDAZINONE COMPOUND AND HERBICIDE” (NISSAN CHEMICAL CORPORATION, priority 2019, published 2023)
